{
  "source": "patent US20260265305A1",
  "about": "“POLYPEPTIDE DERIVATIVE FOR ORAL DELIVERY” (Hangzhou Sciwind Biosciences Co., Ltd., priority 2023, published 2026)",
  "key": {"[1]": {"experiment": "Heat accelerated stability assay of polypeptide solutions (40° C., pH about 7.4), reversed phase chromatography", "type": "physicochemical", "conditions": "40° C.; for Concentration change on 7 d / Concentration change on 26 d: pH about 7.4, 1 mg/mL; for Concentration change on 7 d / Purity change on 7 d: Day 7; for Concentration change on 26 d / Purity change on 26 d: Day 26; for Purity change on 7 d / Purity change on 26 d: reversed phase chromatography 214 nm; for Purity change on 7 d: purity on 7 d − purity on 0 d; for Purity change on 26 d: purity on 26 d − purity on 0 d", "description": "A stability test chamber (BINDER GmbH), a 0.01 mg-readability balance (METTLER TOLEDO), a pH meter (METTLER TOLEDO), a biosafety cabinet (ESCO), T2G-II small-sized motor-driven capping machine (Changsha zhongya pharmaceutical equipment co. LTD), a high-speed refrigerated centrifuge (Eppendorf), a sterilizer cabinet (Shinva Medical), Agilent 1260 high-performance liquid chromatographer, and Sepax Bio-C18 4.6*250 mm 3 μm 200 Å reversed phase column were used.\nReagents and consumables included: ultrapure water (18.2 MΩ, self-made), acetonitrile (HPLC grade), trifluoroacetic acid (HPLC grade), sodium dihydrogen phosphate (pharmaceutical grade, Hunan Jiudian Hongyang Pharmaceutical Co., Ltd), hydrochloric acid (pharmaceutical grade, Hunan Er-Kang Pharmaceutical Co., Ltd), sodium hydroxide (Analytical Reagent grade, Hushi®, Sinopharm Chemical Reagent Co., Ltd), vials, rubber stoppers, disposable syringes, and sterile filters.\nThe lyophilized powder (1 mg/mL) of the polypeptide derivative prepared in accordance with the method of Example 1 was mixed with sodium dihydrogen phosphate (1.42 mg/mL) and dissolved in ultrapure water in the indicated mass-volume ratios. After adjusting pH to about 7.4 with hydrochloric acid/sodium hydroxide, the solution was filtered into a sterilized vial in a clean bench using a 0.22 μm sterile filter. The vial was then capped and placed into the stability test chamber at 40° C. Detections were made on Days 7 (7d) and 26 (26d), and during the assay, changes in the characteristics and properties of the polypeptide were observed and recorded. The sample was then centrifuged for 3 min at 10,000 rpm at 4° C., and the supernatant was transferred to a liquid phase sample vial for detecting the concentration and purity of the polypeptides using liquid phase chromatography described as below, wherein the concentration of the polypeptide=peak area/injection volume/extinction coefficient/60×flow rate, and the purity of the polypeptide=target peak area/total peak area×100%.\nConditions of the reversed phase chromatography Flow rate: 1.0 ml/min; Autosampler temperature: 15° C.; Column temperature: 25° C.; Detection wavelengths: 280 nm and 214 nm; Mobile phase A: 100% H2O+0.05% TFA; Mobile phase B: 100% ACN; and Gradient of elution listed in Table 6: […]"}, "[2]": {"molecular_target": "T1, amylin receptor (hAMY3R) (Homo sapiens, UniProt O60896+P30988)", "T1 construct": "host or cells: CHO-K1/Ga15/AMY3 cells, further stably transfected with a CRE-luciferase plasmid", "T1 sequence (P30988 25-474)": "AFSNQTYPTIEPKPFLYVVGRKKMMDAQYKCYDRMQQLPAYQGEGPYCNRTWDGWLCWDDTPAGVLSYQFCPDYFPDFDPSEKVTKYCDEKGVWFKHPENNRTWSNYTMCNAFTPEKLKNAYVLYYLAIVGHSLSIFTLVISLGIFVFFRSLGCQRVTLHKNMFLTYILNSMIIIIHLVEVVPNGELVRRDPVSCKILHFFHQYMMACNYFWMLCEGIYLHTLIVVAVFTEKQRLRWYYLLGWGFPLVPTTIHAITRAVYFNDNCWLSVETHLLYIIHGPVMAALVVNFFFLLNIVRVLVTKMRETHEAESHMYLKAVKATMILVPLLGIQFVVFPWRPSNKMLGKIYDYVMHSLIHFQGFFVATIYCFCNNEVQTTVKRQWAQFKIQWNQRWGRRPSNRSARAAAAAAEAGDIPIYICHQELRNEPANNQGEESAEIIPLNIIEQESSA", "T1 sequence (O60896 24-148)": "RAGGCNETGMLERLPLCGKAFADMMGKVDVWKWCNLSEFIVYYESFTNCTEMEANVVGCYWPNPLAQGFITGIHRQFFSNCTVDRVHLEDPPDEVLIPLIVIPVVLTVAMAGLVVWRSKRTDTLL", "experiment": "Amylin receptor agonism testing, CRE-luciferase assay in stably transfected CHO-K1/Ga15/AMY3 cells", "type": "cell-based", "conditions": "relative to D1 as benchmark"}, "[3]": {"molecular_target": "T2, calcitonin receptor (hCTR) (Homo sapiens, UniProt P30988)", "T2 construct": "host or cells: CHO-K1/CALCR/Ga15 cells, further stably transfected with a CRE-luciferase plasmid", "T2 sequence (P30988 25-474)": "T1 sequence (P30988 25-474)", "experiment": "Calcitonin receptor agonism, CRE-luciferase assay in stably transfected CHO-K1/CALCR/Ga15 cells", "type": "cell-based", "conditions": "for EC50: incubation of 24 hours, Table 4, read-out: EC50, activity against the calcitonin receptor in cells; for Fold change in activity against hCTR: relative to D1 as benchmark"}},
  "note": "Numbered stars: 1 amine (or outer) side, 2 acyl side, 3 side chain; on linkers, the order of the positions; unused ones are H or OH. Peptide text beside a SMILES is read from it. * marks the point of attachment. C20 diacid = O=C(O)CCCCCCCCCCCCCCCCCCC(=O)*; C18 diacid = O=C(O)CCCCCCCCCCCCCCCCC(=O)*; βAsp = O=C(O)[C@H](CC(=O)[*:2])N[*:1]",
  "data": [
    {"compound": "CC(C)C[C@H](NC(=O)[C@H](CCCNC(=N)N)NC(=O)CNC(=O)[C@H](CC(C)C)NC(=O)[C@@H](NC(=O)[C@H](C)NC(=O)[C@@H](NC(=O)[C@H](CO)NC(=O)[C@H](CC(C)C)NC(=O)[C@H](CCC(N)=O)NC(=O)[C@H](CO)NC(=O)[C@H](C)NC(=O)[C@H](CCC(=O)O)NC(=O)CCCCCCCCCCCCCCCCC(=O)O)[C@@H](C)O)C(C)C)C(=O)N[C@@H](CO)C(=O)N[C@@H](CC(=O)O)C(=O)N[C@@H](CCC(=O)O)C(=O)N[C@@H](CC(C)C)C(=O)N[C@@H](Cc1c[nH]cn1)C(=O)N[C@@H](CCCNC(=N)N)C(=O)N[C@@H](CC(C)C)C(=O)N[C@@H](CCC(N)=O)C(=O)N[C@@H](CC(=O)O)C(=O)N[C@@H](Cc1ccc(O)cc1)C(=O)N1CCC[C@H]1C(=O)N[C@@H](CCCNC(=N)N)C(=O)N[C@H](C(=O)N[C@@H](CC(=O)O)C(=O)N[C@H](C(=O)NCC(=O)N[C@@H](CO)C(=O)NCC(=O)N[C@@H](CO)C(=O)N1CCC[C@H]1C(N)=O)C(C)C)[C@@H](C)O", "note": "[M11] ({C18 diacid}-EASQLSTAVLGRLSDELHRLQDYPRTDVGSGSP-NH2)", "values": [
      {"measurement": "Concentration change on 7 d", "setting": "[1]", "value": "−3.472", "unit": "%"},
      {"measurement": "Concentration change on 26 d", "setting": "[1]", "value": "−9.840", "unit": "%"},
      {"measurement": "Purity change on 7 d", "setting": "[1]", "value": 1.01, "unit": "%"},
      {"measurement": "Purity change on 26 d", "setting": "[1]", "value": "−2.93", "unit": "%"},
      {"measurement": "Fold change in activity against hAMY3R", "setting": "[2]", "value": 2.250},
      {"measurement": "EC50", "setting": "[3]", "value": 0.071, "unit": "nM"},
      {"measurement": "Fold change in activity against hCTR", "setting": "[3]", "value": 1.211}
    ]},
    {"compound": "CC(C)C[C@H](NC(=O)[C@H](CCCNC(=N)N)NC(=O)CNC(=O)[C@H](CC(C)C)NC(=O)[C@@H](NC(=O)[C@H](C)NC(=O)[C@@H](NC(=O)[C@H](CO)NC(=O)[C@H](CC(C)C)NC(=O)[C@H](CCC(N)=O)NC(=O)[C@H](CO)NC(=O)[C@H](C)NC(=O)C[C@H](NC(=O)CCCCCCCCCCCCCCCCCCC(=O)O)C(=O)O)[C@@H](C)O)C(C)C)C(=O)N[C@@H](CO)C(=O)N[C@@H](CC(=O)O)C(=O)N[C@@H](CCC(=O)O)C(=O)N[C@@H](CC(C)C)C(=O)N[C@@H](Cc1c[nH]cn1)C(=O)N[C@@H](CCCNC(=N)N)C(=O)N[C@@H](CC(C)C)C(=O)N[C@@H](CCC(N)=O)C(=O)N[C@@H](CC(=O)O)C(=O)N[C@@H](Cc1ccc(O)cc1)C(=O)N1CCC[C@H]1C(=O)N[C@@H](CCCNC(=N)N)C(=O)N[C@H](C(=O)N[C@@H](CC(=O)O)C(=O)N[C@H](C(=O)NCC(=O)N[C@@H](CO)C(=O)NCC(=O)N[C@@H](CO)C(=O)N1CCC[C@H]1C(N)=O)C(C)C)[C@@H](C)O", "note": "[M12] ({C20 diacid-βAsp}-ASQLSTAVLGRLSDELHRLQDYPRTDVGSGSP-NH2)", "values": [
      {"measurement": "Concentration change on 7 d", "setting": "[1]", "value": "No change (concentration change of less than 1% (denoted as “no change”))"},
      {"measurement": "Concentration change on 26 d", "setting": "[1]", "value": "−8.378", "unit": "%"},
      {"measurement": "Purity change on 7 d", "setting": "[1]", "value": 1.12, "unit": "%"},
      {"measurement": "Purity change on 26 d", "setting": "[1]", "value": "−1.96", "unit": "%"},
      {"measurement": "Fold change in activity against hAMY3R", "setting": "[2]", "value": 2.118},
      {"measurement": "EC50", "setting": "[3]", "value": 0.073, "unit": "nM"},
      {"measurement": "Fold change in activity against hCTR", "setting": "[3]", "value": 1.178}
    ]}
  ]
}
